Data on 21 compounds can be found in patent US20230011869A1 (Hoffmann-La Roche Inc., priority 2018, published 2023).

Structures can show the parent of a compound that is named as a salt.

In the first assay the test system is Acinetobacter baumannii ATCC17978. Put plainly: Antimicrobial susceptibility testing: 90% growth inhibitory concentration (IC90) determination, Iso-Sensitest broth. It is filed as cell-based. The note with it: 90% growth inhibitory concentration, Acinetobacter baumannii ATCC17978, Iso-Sensitest broth, OD 600 nm over 16 h; read-out: ATCC17978 IC90. The protocol: Antimicrobial Susceptibility Testing:
90% Growth Inhibitory Concentration (IC90) Determination
The in vitro antimicrobial activity of the compounds was determined according to the following procedure:
The assay used a 10-points Iso-Sensitest broth medium to measure quantitatively the in vitro activity of the compounds against Acinetobacter baumannii ATCC17978 and Acinetobacter baumannii ATCC17961.
Microtiter plates were incubated at 35±2° C.
Bacterial cell growth was determined with the measurement of optical density at λ=600 nm each 20 minutes over a time course of 16 h. Growth inhibition was calculated during the logarithmic growth of the bacterial cells with determination of the concentration inhibiting 50% (IC50) and 90% (IC90) of the growth.
“1-[4-[[3-[4-(cyanomethoxy)-2,3-difluoro-phenyl]imidazo[1,2-a]pyrazin-8-yl]amino]-2-methyl-benzoyl]-N-methylsulfonyl-piperidine-4-carboxamide trifluoroacetate [Example 100]”: the IC90 was determined as 1.6 µM.

Consider `CO[C@@H]1CNC[C@H]1NC(=O)N1CCN(C(=O)c2ccc(Nc3nccn4c(-c5ccc(OC(F)F)cc5)cnc34)cc2C)CC1` (racemic) [Example 171, 4-[4-[[3-[4-(difluoromethoxy)phenyl]imidazo[1,2-a]pyrazin-8-yl]amino]-2-methyl-benzoyl]-N-[rac-(3R,4R)-4-methoxypyrrolidin-3-yl]piperazine-1-carboxamide hydrochloride], for which the IC90 was 0.19 µM.

On to `COc1ccc(-c2cnc3c(Nc4ccc(C(=O)N5CCN(C(=O)[C@H]6CCNC[C@H]6O)CC5)c(C)c4)nccn23)c(F)c1F` (racemic) [Example 195, [4-[[3-(2,3-difluoro-4-methoxy-phenyl)imidazo[1,2-a]pyrazin-8-yl]amino]-2-methyl-phenyl]-[4-[rac-(3S,4S)-3-hydroxypiperidine-4-carbonyl]piperazin-1-yl]methanone], for which the IC90 came out at 0.29 µM. The same measure, in the same setting: the value for `CCc1cc(Nc2nccn3c(-c4ccc(OCC#N)c(F)c4F)cnc23)ccc1C(=O)N1CCN(C(=O)[C@H]2CCNC[C@H]2O)CC1` (racemic) [Example 199, 2-[4-[8-[3-ethyl-4-[4-[rac-(3S,4S)-3-hydroxypiperidine-4-carbonyl]piperazine-1-carbonyl]anilino]imidazo[1,2-a]pyrazin-3-yl]-2,3-difluoro-phenoxy]acetonitrile formate] was 0.18 µM; that for `Cc1cc(Nc2nccn3c(-c4ccc(OC(F)F)cc4)cnc23)ccc1C(=O)N1CC[C@@H](C(=O)N2CCNCC2)[C@H](O)C1` (racemic) [Example 438, [4-[[3-[4-(difluoromethoxy)phenyl]imi-dazo[1,2-a]pyrazin-8-yl]amino]-2-methylphenyl]-[rac-(3R,4S)-3-hydroxy-4-(piperazine-1-carbonyl)piperidin-1-yl]methanone; 2,2,2-trifluoroacetic acid] was 0.83 µM; that for `COc1ccc(-c2cnc3c(Nc4ccc(C(=O)N5CC[C@@H](C(=O)N6CCNCC6)[C@H](O)C5)c(C)c4)nccn23)cc1F` (racemic) [Example 440, [4-[[3-(3-fluoro-4-methoxyphenyl)imidazo[1,2-a]pyrazin-8-yl]amino]-2-methylphenyl]-[rac-(3R,4S)-3-hydroxy-4-(piperazine-1-carbonyl)piperidin-1-yl]methanone] was 0.95 µM.

For the compound `CNCCNC(=O)[C@@H]1CCN(C(=O)c2ccc(Nc3nccn4c(-c5ccc(OC)c(F)c5)cnc34)cc2C)C[C@H]1O` (racemic) [Example 449, rac-(3R,4S)-1-[4-[[3-(3-fluoro-4-methoxyphenyl)imidazo[1,2-a]pyrazin-8-yl]amino]-2-methylbenozyl]-3-hydroxy-N-[2-(methylamino)ethyl]piperidin-4-carboxamide; 2,2,2-trifluoroacetic acid], the IC90 came out at 2.2 µM. On the same count and under the same terms, the result for `Cc1cc(Nc2nccn3c(-c4ccc(OCC#N)c(F)c4F)cnc23)ccc1C(=O)N1CCN(C(=O)[C@@H]2CCNC[C@H]2O)CC1` (racemic) [Example 472, 2-[2,3-difluoro-4-[8-[3-methyl-4-[4-[rac-(3R,4S)-3-hydroxypiperidine-4-carbonyl]piperazine-1-carbonyl]anilino]imidazo[1,2-a]pyrazin-3-yl]phenoxy]acetonitrile; for-mic acid] reads 0.23 µM; that for `Cc1cc(Nc2nccn3c(-c4ccc(OC(F)F)cc4)cnc23)ccc1C(=O)N1CC[C@@H](C(=O)N2CCNCC2)[C@@H](O)C1` (racemic) [Example 530, [4-[[3-[4-(difluoromethoxy)phenyl]imi-dazo[1,2-a]pyrazin-8-yl]amino]-2-methylphenyl]-[rac-(3R,4R)-3-hydroxy-4-(piperazine-1-carbonyl)piperidin-1-yl]methanone; 2,2,2-trifluoroacetic acid], 0.63 µM; that for `COc1ccc(-c2cnc3c(Nc4ccc(C(=O)N5CCN(C(=O)C(CC(=O)O)NC(=O)[C@@H](N)CCCCN)CC5)c(C)c4)nccn23)c(F)c1F` (mixture of isomers) [Example 534, 4-[4-[4-[[3-(2,3-difluoro-4-methoxyphenyl)imidazo[1,2-a]pyrazin-8-yl]amino]-2-methylbenzoyl]piperazin-1-yl]-4-oxo-3-[[rac-(2R)-2,6-diaminohexanoyl]amino]bu-tanoic acid; hydrochloride], 2.3 µM. Same read-out and setting: the result for `COc1ccc(-c2cnc3c(Nc4ccc(C(=O)N5CCN(C(=O)C(CCC(=O)O)NC(=O)[C@@H](N)CCCCN)CC5)c(C)c4)nccn23)c(F)c1F` (mixture of isomers) [Example 536, 5-[4-[4-[[3-(2,3-difluoro-4-methoxyphenyl)imidazo[1,2-a]pyrazin-8-yl]amino]-2-methylbenzoyl]piperazin-1-yl]-5-oxo-4-[[rac-(2R)-2,6-diaminohexanoyl]amino]pen-tanoic acid; hydrochloride] reads 4.1 µM; that for `CCc1cc(Nc2nccn3c(-c4ccc(OC)c(F)c4F)cnc23)ccc1C(=O)N1CCN(C(=O)[C@@H]2CCNC[C@@H]2O)CC1` (racemic) [Example 547, [4-[[3-(2,3-difluoro-4-methoxyphenyl)imidazo[1,2-a]pyrazin-8-yl]amino]-2-ethylphenyl]-[4-[rac-(3R,4R)-3-hydroxypiperidine-4-carbonyl]piperazin-1-yl]methanone; hydrochloride], 0.34 µM. In the case of `Cc1cc(Nc2nccn3c(-c4ccc(OCC#N)c(F)c4F)cnc23)ccc1C(=O)N1CCN(C(=O)[C@@H]2CCNC[C@@H]2O)CC1` (relative stereo) [Example 196, 2-[2,3-difluoro-4-[8-[3-methyl-4-[4-[rac-(3R,4R)-3-hydroxypiperidine-4-carbonyl]piperazine-1-carbonyl]anilino]imidazo [1,2-a]pyrazin-3-yl]phenoxy] acetonitrile formate], the IC90 was 0.27 µM. The same measure, in the same setting: the value for `COc1ccc(-c2cnc3c(Nc4ccc(C(=O)N5CCN(C(=O)[C@@H]6CCNC[C@@H]6O)CC5)c(C)c4)nccn23)c(Cl)c1F` (relative stereo) [Example 218, [4-[[3-(2-chloro-3-fluoro-4-methoxy-phenyl)imidazo[1,2-a]pyrazin-8-yl]amino]-2-methyl-phenyl]-[4-[(3R,4R)-3-hydroxypiperidine-4-carbonyl]piperazin-1-yl]methanone] was 0.22 µM.

For `Cc1cc(Nc2nccn3c(-c4ccc(OC(F)F)cc4)cnc23)ccc1C(=O)N1CCC(C(=O)O)CC1` [Example 1, 1-(4-((3-(4-(difluoromethoxy)phenyl)imidazo[1,2-a]pyrazin-8-yl)amino)-2-methylbenzoyl)piperidine-4-carboxylic acid], the IC90 came to 1.7 µM.

With `COc1ccc(-c2cnc3c(Nc4ccc(C(=O)N5CCC(C(=O)O)CC5)c(C)c4)nccn23)cc1F` [Example 2, 1-(4-((3-(3-fluoro-4-methoxyphenyl)imidazo[1,2-a]pyrazin-8-yl)amino)-2-methylbenzoyl)piperidine-4-carboxylic acid], the IC90 stood at 1.7 µM.

The same assay, now with this note: Acinetobacter baumannii, ATCC17978, 16 h, read-out: ATCC17978 IC90, 90% growth inhibitory concentration, Acinetobacter baumannii ATCC17978, Iso-Sensitest broth, OD 600 nm over 16 h.
Take `Cc1cc(Nc2nccn3c(-c4ccc(OC(F)F)cc4)cnc23)ccc1C(=O)N1CCC(C(=O)N[C@@H]2C(O)O[C@H](CO)[C@@H](O)[C@@H]2O)CC1` (mixture of isomers) [Example 351, 1-[4-[[3-[4-(difluoromethoxy)phenyl]imi-dazo[1,2-a]pyrazin-8-yl]amino]-2-methylbenzoyl]-N-[rac-(3R,4S,5R,6S)-2,4,5-trihydroxy-6-(hydroxymethyl)oxan-3-yl]piperidine-4-carboxamide]: the IC90 turned out to be 0.72 µM. Still for that read-out and setting: the value for `Cc1cc(Nc2nccn3c(-c4ccc(OC(F)F)cc4)cnc23)ccc1C(=O)N1CCC(C(=O)N2C[C@H](O)[C@@H](O)C2)CC1` (racemic) [Example 415, [4-[[3-[4-(difluoromthoxy)phenyl]imi-dazo[1,2-a]pyrazin-8-yl]amino]-2-methylphenyl]-[4-[rac-(3R,4R)-3,4-dihydroxypyrrolidine-1-carbonyl]piperidin-1-yl]methanone] was 0.78 µM; that for `CNCCNC(=O)[C@@H]1CCN(C(=O)c2ccc(Nc3nccn4c(-c5ccc(OC)c(F)c5)cnc34)cc2C)C[C@@H]1O` (racemic) [Example 439, rac-(3R,4R)-1-[4-[[3-(3-fluoro-4-methoxyphenyl)imidazo[1,2-a]pyrazin-8-yl]amino]-2-methylbenzoyl]-3-hydroxy-N-[2-(methyl-amino)ethyl]piperidine-4-carboxamide; 2,2,2-trifluoroacetic acid] was 0.91 µM; that for `COc1ccc(-c2cnc3c(Nc4ccc(C(=O)N5CCN(C(=O)[C@H]6CCNC[C@@H]6O)CC5)c(C)c4)nccn23)c(F)c1F` (racemic) [Example 489, [4-[[3-(2,3-difluoro-4-methoxyphenyl)imidazo[1,2-a]pyrazin-8-yl]amino]-2-methylphenyl]-[4-[rac-(3R,4S)-3-hydroxypiperidine-4-carbonyl]piperazin-1-yl]methanone; hydrochloride] was 0.27 µM. The same measure, in the same setting: the value for `CCc1cc(Nc2nccn3c(-c4ccc(OCC#N)c(F)c4F)cnc23)ccc1C(=O)N1CCN(C(=O)[C@H]2CCNC[C@@H]2O)CC1` (racemic) [Example 498, 2-[4-[8-[3-ethyl-4-[4-[rac-(3R,4S)-3-hydroxypiperidine-4-carbonyl]piperazine-1-carbonyl]anilino]imidazo[1,2-a]pyrazin-3-yl]-2,3-difluorophenoxy]acetonitrile; formic acid] was 0.33 µM.
